Measurements reported in PubChem BioAssay (NCI).
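Cells were grown in 96-well plates and exposed to each compound for 48 hours at five concentrations; endpoints were interpolated linearly between bracketing concentrations, or set to the highest concentration if not reached. The concentration for 50% growth inhibition is given as GI50. TGI: total growth inhibition.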

What was measured:
Test in all cases: NCI anticancer screen, dose series, 48 h
RPMI-8226 leukemia = tested on: RPMI-8226 leukemia
HCT-116 colon = tested on: HCT-116 colon
LOX IMVI melanoma = tested on: LOX IMVI melanoma
M14 melanoma = tested on: M14 melanoma
SF-295 CNS = tested on: SF-295 CNS
HCT-15 colon = tested on: HCT-15 colon
SF-539 CNS = tested on: SF-539 CNS
OVCAR-5 ovarian = tested on: OVCAR-5 ovarian
SK-MEL-28 melanoma = tested on: SK-MEL-28 melanoma
RXF 393 renal = tested on: RXF 393 renal

SMILES | TGI (RPMI-8226 leukemia) | TGI (HCT-116 colon) | TGI (LOX IMVI melanoma) | TGI (M14 melanoma) | TGI (SF-295 CNS) | TGI (HCT-15 colon) | TGI (SF-539 CNS) | TGI (OVCAR-5 ovarian) | TGI (SK-MEL-28 melanoma) | TGI (RXF 393 renal) | GI50 (RPMI-8226 leukemia) | GI50 (HCT-116 colon) | GI50 (LOX IMVI melanoma) | GI50 (M14 melanoma) | GI50 (SF-295 CNS) | GI50 (HCT-15 colon) | GI50 (SF-539 CNS) | GI50 (OVCAR-5 ovarian) | GI50 (SK-MEL-28 melanoma) | GI50 (RXF 393 renal)
CC(=O)NC1C(OCc2ccccc2)OC(COC(=O)CCCCCNc2ccc([N+](=O)[O-])c3[nH]c4ccc(O)cc4c(=O)c23)C(O)C1OC(C)C(=O)N[C@@H](C)C(=O)N[C@H](CCC(=O)OCc1ccccc1)C(N)=O (some centres not stated) | 3.57 µM | 1.34 µM | 10.7 µM | 3.15 µM | 17 µM | 3.67 µM | 15.4 µM | 3.81 µM | 6.9 µM | 3.26 µM | – | – | – | – | – | – | – | – | – | –
O=C(c1cc2c(C(F)(F)F)onc2c2ccccc12)C(F)(F)F | 12.8 µM | 1.03 µM | 18.3 µM | > 58.6 µM | > 29.3 µM | > 29 µM | 15.8 µM | > 100 µM | > 75.1 µM | 17.4 µM | – | – | – | – | – | – | – | – | – | –
CC(C(=O)c1ccccc1)C1(O)C(=O)Nc2ccccc21 (configuration not stated) | > 100 µM | > 100 µM | > 100 µM | > 100 µM | > 100 µM | > 100 µM | > 100 µM | > 100 µM | > 100 µM | > 100 µM | – | – | – | – | – | – | – | – | – | –
CCN(CC)C(=O)CNC(=O)OC(C)(C)C | > 100 µM | > 100 µM | > 100 µM | > 100 µM | > 100 µM | > 100 µM | > 100 µM | > 100 µM | > 100 µM | > 100 µM | – | – | – | – | – | – | – | – | – | –
COc1ccccc1N1CCN(C(=O)c2ccc(NS(=O)(=O)c3cccc4cccnc34)cc2)CC1 | > 100 µM | > 100 µM | > 100 µM | > 100 µM | > 100 µM | > 100 µM | > 100 µM | > 100 µM | > 100 µM | 59.4 µM | > 100 µM | > 94.2 µM | > 100 µM | > 100 µM | > 39 µM | > 100 µM | > 54.4 µM | > 100 µM | > 100 µM | 5.02 µM
O=C1CC2C(=O)C1C(C(=O)O)C2C(=O)O (configuration not stated) | > 100 µM | > 100 µM | > 100 µM | > 100 µM | > 100 µM | > 100 µM | > 100 µM | > 100 µM | > 100 µM | > 100 µM | – | – | – | – | – | – | – | – | – | –
CCCCNC(=O)Oc1ccc2c(=O)c3sc4c(=O)c5ccccc5c(=O)c4c3c(=O)c2c1 | 4.42 µM | 1.76 µM | 1.75 µM | 0.225 µM | 0.373 µM | 0.36 µM | 0.767 µM | 4.55 µM | 0.524 µM | 2.54 µM | 1.16 µM | 0.334 µM | 0.327 µM | 0.0976 µM | 0.176 µM | 0.16 µM | 0.235 µM | 2.02 µM | 0.224 µM | 1.2 µM
CC(=O)Nc1ccc2oc(=O)c3ccccc3c2c1 | > 100 µM | > 100 µM | > 100 µM | > 100 µM | > 100 µM | > 100 µM | > 100 µM | > 100 µM | > 100 µM | > 100 µM | – | – | – | – | – | – | – | – | – | –
NC(=O)c1cc(Cl)ccc1NC(=O)c1ccccc1-c1ccccc1 | > 100 µM | 65.1 µM | 43 µM | 3.96 µM | 15.9 µM | > 100 µM | 1.89 µM | 79.1 µM | > 100 µM | 5.52 µM | 2.1 µM | 0.43 µM | 0.806 µM | 0.427 µM | 0.347 µM | 0.55 µM | 0.319 µM | 4.12 µM | 3.65 µM | 0.806 µM
CC1OC(O[C@H]2/C=C/C=C/C=C/C=C/C=C/C=C/C=C/[C@H](C)[C@@H](O)[C@@H](C)[C@H](C)OC(=O)C[C@H](O)C[C@H](O)CC[C@@H](O)[C@H](O)C[C@H](O)C[C@]3(O)C[C@H](O)[C@@H](C(=O)O)[C@H](C2)O3)C(O)C(N)C1O (some centres not stated) | 60.3 µM | 50.2 µM | > 50.7 µM | 29.2 µM | > 72.8 µM | 60.9 µM | 47.3 µM | 62.3 µM | 35.2 µM | 18.2 µM | 23.9 µM | – | 15.2 µM | 11 µM | > 61.3 µM | 44.7 µM | 19.3 µM | 27.3 µM | 12 µM | –
CC(C)c1cccc(C(C)C)c1N=C(N)C#N | > 87.3 µM | > 58.6 µM | > 56.2 µM | > 100 µM | > 100 µM | > 58.2 µM | 50 µM | > 100 µM | > 100 µM | > 100 µM | – | – | – | – | – | – | – | – | – | –
COc1cc(C)[nH]c(=O)c1CN1CCc2c(Cl)cc([C@H](OC)C3COC3)c(Cl)c2C1=O | > 100 µM | > 100 µM | > 100 µM | > 100 µM | > 100 µM | > 100 µM | > 100 µM | > 100 µM | > 100 µM | > 100 µM | > 100 µM | > 100 µM | > 100 µM | > 100 µM | > 100 µM | > 100 µM | > 100 µM | > 100 µM | > 100 µM | > 100 µM
O=C(Nc1ccc(Cl)cc1)c1cc2cc(F)ccc2cc1O | 7.16 µM | 6.66 µM | 10.7 µM | > 100 µM | 6.72 µM | > 100 µM | 14.3 µM | > 100 µM | > 100 µM | 16.1 µM | 0.591 µM | 0.963 µM | 2.11 µM | 2.23 µM | 2.47 µM | 1.78 µM | 1.26 µM | 3.28 µM | 1.75 µM | 3 µM
C=C1SC(=Nc2ccccc2Cl)N(C(=O)c2sc3ccccc3c2Cl)C1(C)C | – | > 44.5 µM | > 100 µM | > 69.9 µM | 10.7 µM | > 57.5 µM | > 100 µM | > 100 µM | > 100 µM | > 86.5 µM | 2.44 µM | 8.01 µM | 9.62 µM | 21 µM | 2.07 µM | 4.94 µM | 14 µM | 10.9 µM | 37.2 µM | 16.6 µM
O=C(O[C@H]1CN[C@H](C#Cc2cc3ncnc(Nc4ccc(OCc5cccc(F)c5)c(Cl)c4)c3s2)C1)N1CCOCC1 | 17.3 µM | > 25 µM | > 25 µM | > 25 µM | > 25 µM | > 25 µM | 12 µM | > 25 µM | > 25 µM | > 16.6 µM | 4.48 µM | 7.99 µM | 7.72 µM | 12.6 µM | 9 µM | 8.09 µM | 5.09 µM | 10.5 µM | 12.4 µM | 5.85 µM
